This test relates to P388 leukemia ip, CD2F1 mice, survival T/C. The test is described as follows: NCI In Vivo Anticancer Drug Screen. Data for tumor model P388 Leukemia (intraperitoneal) in CD2F1 (CDF1) mice. Conditions: endpoint: median survival time, higher = longer survival. In short, it runs like this: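 Mice carrying the transplanted tumor received test compound or vehicle. Survival was recorded in each group, and the value is the treated-group measurement divided by that of the vehicle-treated control group.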

Setting [1] is: dose: 50.0 mg/kg/injection, schedule: Q01DX005 (ip), vehicle: saline with Tween-80.
The mark [2] stands for this setting: dose: 100.0 mg/kg/injection, schedule: Q01DX005 (ip), vehicle: saline with Tween-80.
The mark [3] stands for this setting: dose: 200.0 mg/kg/injection, schedule: Q01DX005 (ip), vehicle: saline with Tween-80.
The mark [4] stands for this setting: dose: 100.0 mg/kg/injection, schedule: Q04DX002 (ip), vehicle: saline.
Where [5] appears, read: dose: 200.0 mg/kg/injection, schedule: Q04DX002 (ip), vehicle: saline.
Where [6] appears, read: dose: 400.0 mg/kg/injection, schedule: Q04DX002 (ip), vehicle: saline.
The mark [7] stands for this setting: dose: 50.0 mg/kg/injection, schedule: Q01DX005 (ip), vehicle: Klucel (hydroxypropylcellulose) (HPC).
Where [8] appears, read: dose: 100.0 mg/kg/injection, schedule: Q01DX005 (ip), vehicle: Klucel (hydroxypropylcellulose) (HPC).
Where [9] appears, read: dose: 60.0 mg/kg/injection, schedule: Q01DX005 (ip), vehicle: Klucel (hydroxypropylcellulose) (HPC).
The mark [10] stands for this setting: dose: 120.0 mg/kg/injection, schedule: Q01DX005 (ip), vehicle: Klucel (hydroxypropylcellulose) (HPC).
[11] abbreviates: dose: 240.0 mg/kg/injection, schedule: Q01DX005 (ip), vehicle: Klucel (hydroxypropylcellulose) (HPC).
[12] abbreviates: dose: 12.5 mg/kg/injection, schedule: Q01DX009 (ip), vehicle: saline with Tween-80.
Setting [13] is: dose: 25.0 mg/kg/injection, schedule: Q01DX009 (ip), vehicle: saline with Tween-80.
The mark [14] stands for this setting: dose: 50.0 mg/kg/injection, schedule: Q01DX009 (ip), vehicle: saline with Tween-80.
[15] abbreviates: dose: 100.0 mg/kg/injection, schedule: Q04DX003 (ip), vehicle: saline with Tween-80.
Setting [16] is: dose: 400.0 mg/kg/injection, schedule: Q04DX003 (ip), vehicle: saline with Tween-80.

SMILES strings stand for the structures. “And” between values parts separate entries of the source, which are not always exact repeats. Equal values may be shown once. Toxic doses and inconclusive results are not listed.

As to `C1=C(/N=NNc2ccccc2)CCCCCC/1`, the T/C runs as follows: (dose: 50.0 mg/kg/injection, schedule: Q01DX005 (ip), vehicle: Klucel + Tween-80) 102 % of control; (dose: 100.0 mg/kg/injection, schedule: Q01DX005 (ip), vehicle: Klucel + Tween-80) 100 % of control; (dose: 200.0 mg/kg/injection, schedule: Q01DX005 (ip), vehicle: Klucel + Tween-80) 104 % of control.

For `Cc1c(C)c2ccc3occc(=O)c3c2oc1=O`, the T/C under setting [1] was 102 % of control, the T/C under setting [2] was 101 % of control and the T/C under setting [3] is 100 % of control.

On to `c1ccc2c(c1)NC1=C(CSCC1)c1nncn1-2`, for which the T/C was 104 % of control (dose: 100.0 mg/kg/injection, schedule: Q05DX002 (ip), vehicle: Klucel (hydroxypropylcellulose) (HPC)); 100 % of control (dose: 200.0 mg/kg/injection, schedule: Q05DX002 (ip), vehicle: Klucel (hydroxypropylcellulose) (HPC)); 109 % of control (dose: 400.0 mg/kg/injection, schedule: Q05DX002 (ip), vehicle: Klucel (hydroxypropylcellulose) (HPC)).

`CCC1(CC)C(=O)N(C)P(=O)(Oc2ccccc2)N(C)C1=O`: the T/C is, setting by setting: under setting [4], 100 % of control; under setting [5], 103 % of control; under setting [6], 101 % of control.

Take `COc1ccc(C2(C3NCCC4=C3CCCC4)CC2)cc1` (centres undefined): the T/C under setting [7] is 97 % of control and the T/C under setting [8] is 100 % of control.

On to `O=C1C[N+]2(CCCCC2)c2ccc(Cl)cc2N1`, for which the T/C is, setting by setting: (dose: 6.25 mg/kg/injection, schedule: Q01DX009 (ip), vehicle: saline) 104 % of control; (dose: 6.25 mg/kg/injection, schedule: Q04DX003 (ip), vehicle: saline) 100 % of control; (dose: 12.5 mg/kg/injection, schedule: Q01DX009 (ip), vehicle: saline) 109 % of control; (dose: 12.5 mg/kg/injection, schedule: Q04DX003 (ip), vehicle: saline) 104 % of control; (dose: 25.0 mg/kg/injection, schedule: Q01DX009 (ip), vehicle: saline) 104 % of control; (dose: 25.0 mg/kg/injection, schedule: Q04DX003 (ip), vehicle: saline) 100 % of control.

Turning to `CN(C)C(=O)Oc1ccc(OC(=O)N(C)C)c2ccccc12`, the T/C (dose: 6.25 mg/kg/injection, schedule: Q01DX001 (ip), vehicle: Klucel (hydroxypropylcellulose) (HPC)) was 104 % of control; the T/C (dose: 12.5 mg/kg/injection, schedule: Q01DX001 (ip), vehicle: Klucel (hydroxypropylcellulose) (HPC)) was 104 % of control; the T/C (dose: 25.0 mg/kg/injection, schedule: Q01DX001 (ip), vehicle: Klucel (hydroxypropylcellulose) (HPC)) is 99 % of control and 100 % of control.

Regarding `C=C1C(=O)OC2CC1C(O)C/C(C)=C/CC/C(C)=C/C(O)CC2C` (centres undefined), the T/C runs as follows: (dose: 6.25 mg/kg/injection, schedule: Q01DX009 (ip), vehicle: Klucel (hydroxypropylcellulose) (HPC)) 104 % of control; (dose: 12.5 mg/kg/injection, schedule: Q01DX009 (ip), vehicle: Klucel (hydroxypropylcellulose) (HPC)) 110 % of control; (dose: 25.0 mg/kg/injection, schedule: Q01DX009 (ip), vehicle: Klucel (hydroxypropylcellulose) (HPC)) 104 % of control and 112 % of control.

Regarding `Nc1nnc(CCCCCCCc2nnc(N)o2)o1`, the T/C is 104 % of control (dose: 60.0 mg/kg/injection, schedule: Q01DX005 (ip), vehicle: saline with Tween-80); 99 % of control (dose: 120.0 mg/kg/injection, schedule: Q01DX005 (ip), vehicle: saline with Tween-80); 105 % of control (dose: 240.0 mg/kg/injection, schedule: Q01DX005 (ip), vehicle: saline with Tween-80).

Turning to `Nc1cccc(S(=O)(=O)Nc2c(N)nc(SCC(=O)O)[nH]c2=O)c1`, the T/C by setting is: under setting [9], 100 % of control; under setting [10], 98 % of control; under setting [11], 98 % of control.

For `O=C1C2CN(Cc3ccccc3)CC2C(=O)N1c1ccccc1` (centres undefined), the T/C was 102 % of control under setting [9], 97 % of control under setting [10] and 100 % of control under setting [11].

As for `O=C(Nc1cccc(C2=NCCCN2)c1)Nc1ccc(NC(=O)Nc2cccc(C3=NCCCN3)c2)c(Cl)c1`, the T/C (dose: 0.6 mg/kg/injection, schedule: Q04DX003 (ip), vehicle: saline) was 109 % of control; the T/C (dose: 1.25 mg/kg/injection, schedule: Q04DX003 (ip), vehicle: saline) was 109 % of control; the T/C (dose: 2.5 mg/kg/injection, schedule: Q04DX003 (ip), vehicle: saline) was 109 % of control; the T/C (dose: 10.0 mg/kg/injection, schedule: Q04DX003 (ip), vehicle: saline with Tween-80) is 170 % of control; the T/C (dose: 20.0 mg/kg/injection, schedule: Q04DX003 (ip), vehicle: saline) is 164 % of control; the T/C (dose: 26.4 mg/kg/injection, schedule: Q04DX003 (ip), vehicle: saline with Tween-80) is 183 % of control. The T/C (dose: 40.0 mg/kg/injection, schedule: Q04DX003 (ip), vehicle: saline) was 204 % of control.

Take `CC(=O)C(C(C)=O)=[Se](c1ccccc1)c1ccccc1`: the T/C reads like this: under setting [4], 99 % of control; under setting [5], 100 % of control; under setting [6], 99 % of control.

For the molecule `CC(=O)C[n+]1ccccc1-c1ccccc1C`, the T/C under setting [1] was 103 % of control.

Turning to `CC(C)(C)NC1=C([N+](=O)[O-])CCCC1`, the T/C is, setting by setting: under setting [1], 93 % of control; under setting [2], 93 % of control.

Consider `FC(F)(F)c1ccc(-c2ccc(OCCN3CCCC3)cc2)cc1`, for which the T/C reads like this: under setting [12], 86 % of control; under setting [13], 86 % of control; under setting [14], 86 % of control; (dose: 50.0 mg/kg/injection, schedule: Q04DX003 (ip), vehicle: saline sonified) 87 % of control.

As for `CCOC(=O)CC1=CS/C(=C(\C#N)C(=O)OCC)N1c1ccccc1`, the T/C is 100 % of control under setting [1], 100 % of control under setting [2] and 100 % of control under setting [3].

As for `CCCCCCCCCCS(=O)(=O)OCCCCOS(=O)(=O)CCCCCCCCCC`, the T/C runs as follows: under setting [7], 103 % of control; under setting [8], 103 % of control; (dose: 200.0 mg/kg/injection, schedule: Q01DX005 (ip), vehicle: Klucel (hydroxypropylcellulose) (HPC)) 93 % of control.

Regarding `CCN(N=Nc1ccc(OC)cc1)c1ccc(OC)cc1`, the T/C was 103 % of control and 96 % of control under setting [12]; 108 % of control and 109 % of control under setting [13]; 116 % of control and 117 % of control under setting [14]; 100 % of control and 124 % of control (dose: 100.0 mg/kg/injection, schedule: Q01DX009 (ip), vehicle: saline with Tween-80).

In the case of `O=C(O)c1cc(I)cc(I)c1`, the T/C reads like this: (dose: 37.5 mg/kg/injection, schedule: Q01DX009 (ip), vehicle: saline with Tween-80) 99 % of control; (dose: 75.0 mg/kg/injection, schedule: Q01DX009 (ip), vehicle: saline with Tween-80) 104 % of control; under setting [15], 98 % of control; (dose: 150.0 mg/kg/injection, schedule: Q01DX009 (ip), vehicle: saline with Tween-80) 95 % of control; (dose: 200.0 mg/kg/injection, schedule: Q04DX003 (ip), vehicle: saline with Tween-80) 96 % of control; under setting [16], 96 % of control.

Regarding `NC(=O)C1c2ccccc2C=Cc2ccccc21`, the T/C was 93 % of control under setting [1], 90 % of control under setting [2] and 93 % of control under setting [3].

As for `Nc1nc(N)c(C(=O)SCc2ccccc2)nc1Cl`, the T/C was 107 % of control (dose: 50.0 mg/kg/injection, schedule: Q01DX009 (ip), vehicle: Klucel (hydroxypropylcellulose) (HPC)); 95 % of control (dose: 100.0 mg/kg/injection, schedule: Q01DX009 (ip), vehicle: Klucel (hydroxypropylcellulose) (HPC)); 91 % of control (dose: 200.0 mg/kg/injection, schedule: Q01DX009 (ip), vehicle: Klucel (hydroxypropylcellulose) (HPC)).

For `NC(=S)N/N=C\c1ccc(/C=N/NC(N)=S)cc1`, the T/C reads like this: under setting [15], 91 % of control; under setting [16], 86 % of control.

Take `O=C(CNC1=NCCN1)Nc1ccc(NC(=O)c2ccc(C(=O)Nc3ccc(NC(=O)CNC4=NCCN4)cc3)cc2)cc1`: the T/C was 118 % of control and 124 % of control under setting [1]; 189 % of control under setting [3]; 96 % of control (dose: 400.0 mg/kg/injection, schedule: Q01DX005 (ip), vehicle: saline with Tween-80).

These data come from PubChem BioAssay AID330 (DTP/NCI, 2004).
